Assay [1] deals with Carbonic anhydrase 3 (Homo sapiens) (UniProt P07451).
Description: Inhibition of human recombinant full length carbonic hydrase 3 by stopped-flow CO2 hydration assay
The target of assay [2] is Carbonic anhydrase 13 (Mus musculus) (UniProt Q9D6N1). In words: Inhibition of mouse recombinant full length carbonic hydrase 13 by stopped-flow CO2 hydration assay.
Chain of Carbonic anhydrase 13 (Mus musculus) (Q9D6N1 whole entry, looked up): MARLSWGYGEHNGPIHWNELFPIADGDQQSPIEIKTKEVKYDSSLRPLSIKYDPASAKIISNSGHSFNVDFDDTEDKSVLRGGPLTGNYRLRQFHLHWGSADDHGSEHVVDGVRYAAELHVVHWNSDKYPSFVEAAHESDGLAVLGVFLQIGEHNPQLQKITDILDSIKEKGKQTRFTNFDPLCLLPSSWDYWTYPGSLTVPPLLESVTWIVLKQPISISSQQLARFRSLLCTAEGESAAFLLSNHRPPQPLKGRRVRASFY

Chain of Carbonic anhydrase 3 (Homo sapiens) (P07451 whole entry): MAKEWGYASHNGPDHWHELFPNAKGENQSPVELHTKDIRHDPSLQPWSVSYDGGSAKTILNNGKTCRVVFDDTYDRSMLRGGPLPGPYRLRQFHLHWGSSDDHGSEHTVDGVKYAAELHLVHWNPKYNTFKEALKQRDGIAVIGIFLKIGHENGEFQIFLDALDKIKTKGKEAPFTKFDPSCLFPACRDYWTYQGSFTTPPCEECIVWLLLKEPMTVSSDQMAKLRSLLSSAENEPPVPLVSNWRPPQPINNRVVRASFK

Consider `CC(=O)/N=c1/sc(S(N)(=O)=O)nn1C`, for which the Kinact in assay [1] is 7 10^5nM. As to `CN(C)c1nnc(CS(N)(=O)=O)s1`, in assay [2], the Ki came out at 20 nM. Besides, the Kinact in assay [1] was 3.6 10^5nM.

What is called Ki is the equilibrium dissociation constant of an inhibitor or competing ligand from its target.
